Source: patent US20200384161A1, “COMPOSITE ANTI-RESTENOSIS DRUG FOR CORONARY DRUG-ELUTING STENT AND CONTROLLED RELEASE SYSTEM THEREOF” (XINXIN MEDICAL TECHNOLOGY (SHANGHAI) CO. LTD, priority 2017, published 2020)

Legend:
[1] = test system: primary smooth muscle cells of porcine coronary vessels; assay: In vitro effect of arsenic trioxide on primary porcine coronary vascular smooth muscle cells (total cell number); assay type: cell-based
Text: (§1) FIGS. 1 and 2 show the effects of arsenic trioxide on primary smooth muscle cells and primary endothelial cells of porcine coronary vessels in in vitro experiments. In the figures, the vertical axis represents the total number of cells in the wells of the culture plate, and the horizontal axis represents the concentration of the arsenic trioxide solution. Each curve represents the effect of arsenic trioxide at various concentrations on apoptosis (decrease in total number of cells) at a given time. […] However, for smooth muscle cells, cells apoptosis began even at low concentrations (3 μM) from Day 2 (FIG. 1). […] Arsenic trioxide may induce apoptosis of smooth muscle cells while having poor inhibitory effect on endothelial cells or even promoting their growth.

VSMCs = conditions: Li Hui et al. 2010; cited from earlier work
[2] = cited from earlier work
[3] = test system: primary endothelial cells of porcine coronary vessels; assay: In vitro effect of arsenic trioxide on primary porcine coronary endothelial cells (total cell number); assay type: cell-based
Text: as §1

Substance: arsenic trioxide
- concentration of arsenic trioxide at which smooth muscle cell apoptosis began ([1]; from Day 2, decrease in total number of cells (FIG. 1)): 3 µM
- pro-apoptotic effect on smooth muscle cells ([1]; when it reaches a certain dose): strong pro-apoptotic effect
- mitochondrial transmembrane potential (Δψm) (VSMCs): could induce a decrease of mitochondrial transmembrane potential
- solubility in common solvents ([2]; common (organic) solvents such as ethanol): cannot be dissolved
- solubility in water ([2]; only one crystal form out of three): slightly soluble
- pro-apoptotic effect on endothelial cells [3]: not obvious
- proliferation of endothelial cells ([3]; FIG. 2): promoting proliferation of endothelial cell to a certain extent
- effect on endothelial cells ([3]; at a concentration of 12 μM or below (FIG. 2)): little effect
- effect on endothelial cell growth ([3]; first to the third day upon drug action): stimulation of growth
